Assays:
[1] = test system: anti-T14 antibodies (conjugate and test line); test: Sandwich lateral flow test (half dipstick), peptide detection; assay type: binding, rabbit; settings: peptide at 0.1 mg/ml, FIG. 11
Method: (§1) The detector reagent was a 40 nm gold particle which is passively conjugated to the antibodies. Conjugates were prepared for: AB16 (rabbit polyclonal), AB117 (rabbit monoclonal) and AB104 (rabbit monoclonal).
(§2) In this format, a gold conjugate is in liquid form (in the well) rather than dry enabling high throughput of the test conditions. The test line is “dotted” onto the membrane by pipette to facilitate evaluation of a range of conditions.
(§3) • A) Inhibition Assay: T14 peptide • T30 peptide • B) Sandwich Assay: Rabbit polyclonal, AB16 • Rabbit monoclonal, AB117 • Rabbit monoclonal, AB104 • Rabbit monoclonal, AB102
Each antibody was “dotted” onto CN180 membrane (1 μl neat, i.e. 1 mg/ml, concentration) and the membrane dried for 15 mins at 37° C. The goat anti-rabbit antibody was applied to the membrane as a control line. Conjugate and test line antibody combinations were then evaluated in a matrix study in the lateral flow format.
• (i) 10 μl peptide (either T14 or T30 at 0.1 mg/ml) and 10 μl TBST (Tris buffered saline 1% Tween 20) added to Well 1; • (ii) The dipstick was added to Well 1; • (iii) The dipstick was run to completion (no liquid remaining); • (iv) The dipstick was added to Well 2 containing 20 μl conjugate; • (v) The dipstick was run to completion (no liquid remaining); and • (vi) The dipstick was added to Well 3 containing 20 μl TBST.

[2] = test system: anti-T14 antibody 40 nm gold conjugates; test: Inhibition lateral flow test (half dipstick), peptide dotted on membrane; assay type: binding, rabbit; settings: peptide dotted at 1, 0.5 and 0.25 mg/ml on CN180 membrane, FIG. 10
Method: as §1, §2
The nitrocellulose membrane was CN180.
as §3
Peptide (T14 or T30) was diluted to 1, 0.5 and 0.25 mg/ml in deionised water. The peptide was “dotted” onto CN180 nitrocellulose membrane (1 μl at each concentration) and the membrane dried for 15 minutes at 37° C. The goat anti-rabbit antibody was applied to the membrane as a control line.
• (i) 20 μl gold conjugate (neat) and 20 μl TBST (Tris buffered saline 1% Tween 20) added to Well 1; • (ii) The dipstick was added to Well 1; • (iii) The dipstick was run to completion (no liquid remaining); and • (iv) The dipstick was added to Well 2 containing 20 μl TBST only to wash the test strip.

Sequence | detection of peptide by sandwich LFT [1] | detection of peptide by inhibition LFT [2]
KAEFHRWSSYMVHWKNQFDHYSKQDRCSDL (KAEFHRWSSYMVHWKNQFHDYSKQDRCSDL; listed as Homo sapiens) [T30, last 30 amino acid residues of tailed acetylcholinesterase] | able to detect | able to detect
AEFHRWSSYMVHWK (listed as Homo sapiens) [T14, 14 amino acid peptide derived from the C-terminus of acetylcholinesterase; biomarker] | able to detect | able to detect
